PubChem BioAssay (NCI)
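Each compound was tested at five concentrations against cells in 96-well plates for 48 hours. GI50 marks 50% less growth. TGI marks complete inhibition of growth.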

How the values were obtained:
Assay in all cases: inhibition of tumour cell growth, NCI panel, 48 h
A549 NSCLC = test system: A549 NSCLC
SR leukemia = test system: SR leukemia
NCI-H23 lung = test system: NCI-H23 lung
NCI-H460 lung = test system: NCI-H460 lung
HOP-62 NSCLC = test system: HOP-62 NSCLC
MDA-MB-231 breast = test system: MDA-MB-231 breast
NCI-H226 lung = test system: NCI-H226 lung
IGROV1 ovarian = test system: IGROV1 ovarian
KM12 colon = test system: KM12 colon
NCI/ADR-RES ovarian = test system: NCI/ADR-RES ovarian

Structure (SMILES)	TGI (A549 NSCLC) [µM]	TGI (SR leukemia) [µM]	TGI (NCI-H23 lung) [µM]	TGI (NCI-H460 lung) [µM]	TGI (HOP-62 NSCLC) [µM]	TGI (MDA-MB-231 breast) [µM]	TGI (NCI-H226 lung) [µM]	TGI (IGROV1 ovarian) [µM]	TGI (KM12 colon) [µM]	TGI (NCI/ADR-RES ovarian) [µM]	GI50 (A549 NSCLC) [µM]	GI50 (SR leukemia) [µM]	GI50 (NCI-H23 lung) [µM]	GI50 (NCI-H460 lung) [µM]	GI50 (HOP-62 NSCLC) [µM]	GI50 (MDA-MB-231 breast) [µM]	GI50 (NCI-H226 lung) [µM]	GI50 (IGROV1 ovarian) [µM]	GI50 (KM12 colon) [µM]	GI50 (NCI/ADR-RES ovarian) [µM]
Cn1c(=O)c2[nH]c(CS(=O)(=O)Cc3nc4c([nH]3)c(=O)n(C)c(=O)n4C)nc2n(C)c1=O	> 100	> 100	> 100	> 100	> 100	> 100	> 100	> 100	> 100	> 100	–	–	–	–	–	–	–	–	–	–
C=C1C(=O)OC2CC3(CO3)C3C(O)C(O)CC3(C)CC12 (stereo not given)	> 100	87.4	47.9	> 100	> 100	60.5	> 100	> 100	> 100	> 100	–	–	–	–	–	–	–	–	–	–
CCN(CC)CCOc1ccc(/C=C2\CC3C4CC=C5C[C@@H](N6CCCC6)CC[C@]5(C)C4CC[C@]3(C)[C@H]2O)cc1OC (stereo not given in full)	> 100	0.648	25.1	65.7	15.3	7.58	45.2	> 27.6	11.9	47.5	7.91	0.224	8.87	14.2	5.82	2.96	19.3	8.91	2.67	13.3
O=C1C(=O)c2ccccc2C(O)=C1C(CCc1ccccc1)C1=C(O)c2ccccc2C(=O)C1=O	> 100	> 100	> 100	> 100	> 100	> 100	> 100	> 100	> 100	> 100	–	–	–	–	–	–	–	–	–	–
COc1ccc(-c2nc(-c3cn(C)c4ncccc34)cs2)cc1	> 100	> 100	> 100	> 100	> 100	> 100	> 100	> 100	> 100	> 100	76.1	9.7	> 100	32.9	> 100	75.3	> 100	> 100	8.01	11.9
O=C(NC(=S)Nc1ccc(Cl)cc1)c1ccccc1	> 100	> 100	> 100	> 100	> 100	> 100	> 100	> 100	> 100	> 100	> 100	> 100	> 100	> 100	> 61.7	> 51.6	> 100	> 87.7	> 100	> 100
CCOC(CN=c1nc(N(C)C)ss1)OCC	> 100	12.2	65.8	> 94.4	> 100	29.8	36	> 100	38.9	> 100	–	–	–	–	–	–	–	–	–	–
CC1(C)N=C(N)N=C(N)N1c1cc(Cl)ccc1Cl	> 100	> 100	> 100	> 100	> 100	> 100	> 100	88.6	> 100	> 100	> 100	> 100	> 100	60.6	> 100	> 100	> 100	27.6	> 100	> 100
C[C@]12CC[C@@H]3c4ccc(O)cc4CC[C@H]3[C@@H]1CC[C@@H]2NS(=O)(=O)Cc1ccc(Cl)cc1	11	> 100	10.8	5.31	8.14	4.54	12.6	10.4	4.39	10.7	2.98	3.69	2.76	2.23	2.97	1.75	3.19	2.99	2.05	2.69
O=C1C=Cc2ccccc2/C1=C/c1[nH]c(=O)[nH]c1O	61.6	7.83	> 100	30.9	35	84.3	> 100	26.6	9.34	> 100	19.8	1.67	8.19	9.71	7.5	13.2	9.59	1.39	2.99	20.3
O=C1OC(=O)C2C1C1(c3ccccc3)C(c3ccccc3)=C(c3ccccc3)C2(c2ccccc2)S1=O (stereo not given)	> 100	> 100	> 100	> 100	> 100	> 100	> 100	> 100	> 100	> 100	> 100	49.3	> 100	> 100	> 100	> 100	> 100	> 100	> 100	> 100
Cc1ccc2c(N)c(C(=O)N[C@H]3CCc4cc(N5CC6CCC(C5)N6)ccc4C3)sc2n1	2.03	4.36	5.31	1.43	2.36	2.71	2.58	2.72	3.33	2.76	0.207	0.202	1.24	0.152	0.291	0.606	0.452	0.348	0.693	0.798
COC(=O)/C(=C\c1c(C)[nH]c2ccccc12)S(=O)(=O)c1ccccc1	64	> 100	29.5	9.61	29.4	14.5	19.5	8.94	6.31	67.7	4.87	1.05	4.81	2.99	7.69	2.74	4.34	1.53	2.37	4.19
COc1nc(C)cc2c(=O)n(-c3ccccc3)n(CCCN3CCN(c4ccc(Cl)cc4)CC3)c(=O)c12	> 50	> 50	> 50	> 50	> 50	> 50	> 50	> 50	> 50	> 50	21.2	> 50	> 50	24.6	24.5	39.5	> 50	> 50	> 50	> 50
O=C1c2ccccc2-c2c1c1ccccc1c(=O)n2CCCN1CCOCC1	> 100	> 100	41.5	> 100	18.7	34.1	84.5	> 50.1	> 100	> 100	26.2	12.2	15.4	20	6.22	12	26.4	8.36	> 100	18.2
O=[N+]([O-])/C=C/c1c[nH]c2ccccc12	31.7	7.18	31	46.3	36.5	30.7	40.4	27.6	31	40	14	2.92	15	17	21.4	15.2	18.1	13.3	14.6	18.4
Cc1cc2c(F)c(Oc3ncnn4cc(OC[C@@H](C)OC(=O)[C@H](C)N)c(C)c34)ccc2[nH]1	23.3	16	25.9	13.8	26.9	29.7	24.8	23.4	20.5	30.2	8.86	2.99	11.8	2.1	10.3	14.1	7.75	9.1	7.68	9.79
O=C(Oc1ccc(CCl)cc1)c1ccccc1	2.42	0.423	1.15	1.09	0.333	0.311	0.437	0.419	0.323	0.472	1.16	0.0594	0.322	0.238	0.17	0.149	0.185	0.212	0.166	0.2
CN(C)CCCNC(=O)c1cc(NC(=O)c2cc(NC(=O)c3cc(NC(=O)CCc4c[nH]c5ccccc45)cn3C)cn2C)cn1C	> 100	> 100	> 100	> 100	> 100	> 100	> 100	> 100	> 100	> 100	> 100	> 100	> 100	> 100	> 100	> 100	> 100	> 100	> 100	> 100
COC(=O)Nc1nc2ccccc2c(=O)[nH]1	> 100	> 100	> 100	> 100	> 100	> 100	> 100	> 100	> 100	> 100	–	–	–	–	–	–	–	–	–	–
CCOC(=O)Oc1c(OC)cc(C(=O)O[C@@H]2C[C@@H]3CN4CCc5c([nH]c6cc(OC)ccc56)[C@H]4C[C@@H]3[C@H](C(=O)OC)[C@H]2OC)cc1OC	14.2	> 100	21.8	16.6	25.2	19.6	58.1	39.2	17.7	23.3	3.41	3.61	5.24	3.8	11.7	2.56	15.1	9.58	4.7	4.37
O=C(C(Br)Br)C(Br)C(Br)c1ccccc1 (stereo not given)	52.4	3.68	27.5	66.4	8.1	20.6	15.4	11.5	28.5	72.4	20.4	1.61	5.16	24.5	2.74	5.4	3.31	3.56	14.2	5.23
C=C1C(=O)O[C@H]2[C@H]1CC/C(Cn1cc(-c3ccccc3)nn1)=C\CC[C@@]1(C)O[C@@H]21	13.8	6.44	12.4	23.3	15.1	7.89	11.2	14.9	18.7	13.7	5.88	1.06	5.38	7.74	7.41	2	4.6	6.95	8.48	6.17
Cc1[nH]c(/C=C2\C(=O)Nc3ccc(F)cc32)c(C)c1C(=O)NC[C@H](O)CN1CCOCC1	> 10	> 10	> 10	> 10	> 10	> 10	> 10	> 10	> 10	> 10	6.02	3.41	2.41	2.39	4.41	4.25	2.33	2.73	0.0691	> 10
COc1ccc(/C=C\c2cc(OC)c(OC)c(OC)c2)cc1OCC(=O)Nc1nc2ccc(C(F)(F)F)cc2s1	> 100	> 100	> 100	> 100	> 100	> 100	31.3	> 100	11.5	5.8	4.46	3.35	3.9	3.55	5.22	3.38	3.17	4.48	3.14	2.12
COc1c(O)ccc2c1CN1CCc3cc4c(cc3C1C2)OCO4 (stereo not given)	> 100	> 100	> 100	> 74.7	> 100	> 100	> 100	> 100	> 100	90.2	–	–	–	–	–	–	–	–	–	–
